Experiments:
[1] = system: Chick type II collagen (CII)-induced rheumatoid arthritis (RA); assay: Evaluation of RA severity (visual arthritis scoring), collagen-induced RA; type: in vivo, DBA/1 mice; details: mice, 100 μL intraperitoneal once daily for 20 days, scored every 3 days, 21st to 42nd day, FIG. 6
Description: Female DBA/1 mice (8 weeks old, with a body weight of approximately 20 g) used in the following experiments were purchased from National Laboratory Animal Center, Taipei City, Taiwan. All the experimental mice were housed in an animal room under the following laboratory conditions: an alternating 12-hour light and 12-hour dark cycle, a temperature maintained at 21° C. to 23° C., and a relative humidity maintained at 45% to 60%. Furthermore, water and feed were provided ad libitum for all the experimental mice. All experimental procedures involving the experimental mice were in compliance with the legal provision of the Institutional Animal Care and Use Committee of National Chung Hsing University, Taiwan, and were carried out according to the Guide for the Care and Use of Laboratory Animals of National Institutes of Health (NIH). […]
At the end of the 21st day after the initial immunization, the pathological symptoms (i.e., erythema and edema in the sole joint, ankle, and knee joint) in the respective mouse was assessed according to the visual arthritis scoring system described in Brand D. D. et al. (2007), Nat. […] Thereafter, the abovementioned visual arthritis scoring system was performed every 3 days until the 42nd day after the initial immunization (i.e., each mouse was scored 8 times). The degree of RA severity was scored on a scale from 1 to 8. […]

[2] = system: serum COMP, TNF-α, IL-1β, IL-6, IL-17A, PGE2 and NO in MIA-induced OA; assay: OA biomarkers and inflammatory markers in serum sample (ELISA, Griess assay), MIA-induced OA; type: in vivo, Sprague Dawley rats; details: rat serum; for content of cartilage oligomeric matrix protein (COMP): day 28, FIG. 3; for content of IL-1β / content of IL-6 / content of IL-17A / content of TNF-α: day 28, FIG. 4; for content of PGE2: day 28, FIG. 5; for content of NO: day 28, Griess assay, FIG. 5
Description: The Sprague Dawley rats were divided into five groups, including one normal control group, one pathological control group, one comparative group, and two experimental groups (i.e., experimental groups 1 to 2) (n=5 rats in each group).
The right knee joint of the respective rat in the pathological control group, the comparative group, and the experimental groups 1 and 2 was intraarticularly injected with 30 μL of a monosodium iodoacetate (MIA) solution (50 g/L, in 0.9% normal saline). In addition, the right knee joint of the respective rat in the normal control group was intraarticularly injected with 30 μL of 0.9% normal saline.
On day 3 and day 14 after injection of the MIA solution, the right knee joint of the respective rat in the comparative group was intraarticularly injected with 30 μL of 1% HA, the right knee joint of the respective rat in the experimental group 1 was intraarticularly injected with 30 μL of the EGF solution (containing 20 μg/g EGF), the right knee joint of the respective rat in the experimental group 2 was intraarticularly injected with 30 μL of the mixture solution (containing 20 μg/g EGF), and the right knee joint of the respective rat in the pathological control group was intraarticularly injected with 30 μL of 0.9% normal saline. In addition, the rats of the normal control group received no treatment.
After determining the diameter of right knee joint at the end of day 28 as described in section D of this example, the rats in each group were sacrificed by virtue of 95% CO2 asphyxiation. Next, a blood sample was collected from the heart of each rat through arterial puncture using a 25G needle, and was then subjected to centrifugation at 1,500 g and 25° C. for 10 minutes, so as to obtain a serum sample. Thereafter, the right knee joint tissue of the respective rat in each group was obtained from each rat carcass and was washed with 0.9% normal saline.
The respective serum sample obtained in section E of this example was diluted 5-fold with RPMI 1640 medium. Thereafter, the content of cartilage oligomeric matrix protein (COMP) was determined using a rat COMP ELISA Kit (Cusabio, Cat. No. CSB-E13833r) in accordance with the manufacturer's instructions. In addition, the contents of TNF-α, IL-1β, IL-6, and IL-17A were respectively determined using a TNF-α ELISA Kit (Invitrogen, Cat. No. 88-7340-88), an IL-1β ELISA Kit (Invitrogen, Cat. No. 88-6010-22), an IL-6 ELISA Kit (Invitrogen, Cat. No. 88-50625-88), and an IL-17A ELISA Kit (Invitrogen, Cat. No. 88-7170-22) in accordance with the manufacturer's instructions. The content of prostaglandin E2 (PGE2) was determined using a PGE2 ELISA Kit (Cusabio, Cat. No. CSB-E07967r) in accordance with the manufacturer's instructions.
Moreover, the content of nitric oxide (NO) was determined using the Griess assay. Briefly, 100 μL of the respective serum sample obtained in section E of this example was mixed with 100 μL of a Griess reagent (containing 0.2% N-(1-Naphthyl)ethylenediamine, 2% sulfanilamide, and 5% phosphoric acid), followed by being left standing for reaction to proceed at room temperature for 10 minutes. The resultant reaction mixture was subsequently subjected to determination of absorbance at a wavelength of 540 nm (OD540) using a spectrophotometer. The OD540 values obtained were subsequently converted to concentration expressed in pg/mL based on a correlation curve previously prepared by plotting different known concentrations of sodium nitrate standards versus OD540 values thereof.
The data thus obtained were analyzed according to the method described in section 1 of “General Procedures”.

| Substance | severity of RA (visual arthritis score, scale 1 to 8) [1] | content of cartilage oligomeric matrix protein (COMP) [2] | content of IL-1β [2] | content of IL-6 [2] | content of IL-17A [2] | content of TNF-α [2] | content of PGE2 [2] | content of NO [2] |
| --- | --- | --- | --- | --- | --- | --- | --- | --- |
| EGF: Epidermal growth factor (Cat. No. 02-108, Joycom Bio-chem) dissolved in PBS, 20 μg/g EGF; given to experimental group 1 (NSDSECPLSHDGYCLHDGVCMYIEALDKYACNCVVGYIGERCQYRDLKWWELR; UniProt P01133 971-1023, looked up) | increased slowly | lower than that determined in the pathological control group | lower than those determined in the pathological control group | lower than those determined in the pathological control group | lower than those determined in the pathological control group | lower than those determined in the pathological control group | lower than those determined in the pathological control group | lower than those determined in the pathological control group |
| hyaluronic acid [HA, reference compound] | increased slowly | lower than that determined in the pathological control group | lower than those determined in the pathological control group | lower than those determined in the pathological control group | lower than those determined in the pathological control group | lower than those determined in the pathological control group | lower than those determined in the pathological control group | lower than those determined in the pathological control group |

From US20230149510A1, “METHOD FOR ALLEVIATING ARTHRITIS USING EPIDERMAL GROWTH FACTOR” (Lovin BioMed Co., Ltd., priority 2021, published 2023)
